According to patent US7452997B2 (priority 2004, dated 2008):
Where two headings read alike, the source gives them in different places.

Key:
[1] = biological target: T1, human CB2 receptor (Homo sapiens, UniProt P34972); assay: Binding assay, cannabinoid CB2 receptor ([3H]-CP-55,940 displacement); conditions: SK-N-MC cell membranes, radioligand CP-55,940 0.2 nM
Method in brief: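 Membranes from SK-N-MC cells stably expressing human CB2, incubated with test compound and 0.2 nM [3H]-CP-55,940 for 90 min at 30 °C in Tris buffer pH 7.5 with fatty-acid-free BSA. Nonspecific binding defined with 10 uM WIN 55,212; filtration and scintillation counting, IC50 by linear regression.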

[2] = biological target: T1, human CB2 receptor; assay: Functional cell-based assay, CB2 receptor mediated change in CRE β-gal expression (agonist / inverse agonist); conditions: SK-N-MC cells, forskolin
Excerpt: Functional Cell-Based Assay for CB1 or CB2 Agonist and Inverse Agonist Effects on Intra-Cellular Adenylate Cyclase Activity
The CB1 and CB2 receptors are G-protein coupled receptors (GPCR) which influence cell function via the Gi-protein. These receptors modulate the activity of intracellular adenylate cyclase which in turn produces the intracellular signal messenger cyclic-AMP (cAMP).
At baseline, or during non-ligand bound conditions, these receptors are constitutively active and tonically suppress adenylate cyclase activity. The binding of an agonists causes further receptor activation and produces additional suppression of adenylate cyclase activity. The binding of an inverse agonist inhibits the constitutive activity of the receptors and results in an increase in adenylate cyclase activity.
By monitoring intracellular adenylate cyclase activity, the ability of compounds to act as agonists or inverse agonists can be determined.
Test compounds were evaluated in SK-N-MC cells which, using standard transfection procedures, were stably transfected with human cDNA for pcDNA3-CRE β-gal and pcDNA3 CB1 receptor (human) or pcDNA3 CB2 receptor (human). By expressing CRE β-gal, the cells produced β-galactosidase in response to CRE promoter activation by cAMP. Cells expressing CRE β-gal and either the human CB1 or CB2 receptor will produce less β-galactosidase when treated with a CB1/CB2 agonist and will produce more β-galactosidase when treated with a CB1/CB2 inverse agonist.
The cells were grown in 96-well plates under standard cell culture conditions at 37° C. in a 5% CO2 atmosphere. After 3 days, the media was removed and a test compound in media (wherein the media was supplemented with 2 mM L-glutamine, […] sodium pyruvate, 0.1% low fatty acid FBS (fetal bovine serum) and antibiotics) was added to the cell. The plates were incubated for 30 minutes at 37° C. and the plate cells were then treated with forskolin over a 4-6 hour period, then washed and lysed. The β-galactosidase activity was quantitated using commercially available kit reagents (Promega Corp. Madison, Wis.) and a VMAX Plate Reader (Molecular Devices, Inc).
For cells expressing CRE β-gal and the CB2 receptor, CB2 agonists reduced β-galactosidase activity in a dose-dependent manner and CB2 inverse agonists increased β-galactosidase activity in a dose-dependent manner.
The change in β-galactosidase activity was determined by setting a vehicle treated cell's activity value at 100% and expressing the β-galactosidase activity measured in a corresponding compound treated cell as a percent of the vehicle treated cell activity.
The EC50 values for compounds tested were calculated by linear regression and were obtained from studies in which varying compound concentrations were used.

[3] = biological target: T2, human CB1 receptor (Homo sapiens, UniProt P21554); assay: biochemical; format: binding
T2 construct: expressed in transfected cells; host or cells: SK-N-MC cells, stably transfected with pcDNA3 CB-1 (human); semi-purified membrane pellet
T2 sequence (P21554 whole entry): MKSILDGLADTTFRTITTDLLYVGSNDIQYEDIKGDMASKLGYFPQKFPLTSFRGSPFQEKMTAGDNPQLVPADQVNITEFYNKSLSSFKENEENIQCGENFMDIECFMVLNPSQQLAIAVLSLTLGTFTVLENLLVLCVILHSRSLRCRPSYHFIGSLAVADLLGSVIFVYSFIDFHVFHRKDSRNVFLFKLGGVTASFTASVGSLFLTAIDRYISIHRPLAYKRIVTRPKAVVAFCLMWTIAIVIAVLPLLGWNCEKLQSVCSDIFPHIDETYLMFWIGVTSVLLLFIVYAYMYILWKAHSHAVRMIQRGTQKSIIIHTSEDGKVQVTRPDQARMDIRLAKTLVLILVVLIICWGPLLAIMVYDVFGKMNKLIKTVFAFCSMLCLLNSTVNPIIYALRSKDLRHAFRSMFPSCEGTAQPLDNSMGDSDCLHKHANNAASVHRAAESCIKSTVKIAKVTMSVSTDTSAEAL
Method in brief: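 Membranes from SK-N-MC cells stably expressing human CB1, incubated 90 minutes at 30° C in Tris-HCl buffer with MgCl2, EDTA and fatty acid free BSA, pH 7.5. Bound counts collected by filtration and scintillation counting; IC50 from linear regression over varying compound concentrations.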

[4] = Cannabinoid CB2 Receptor Binding IC50, human CB2 receptor
[5] = inverse agonist, read-out: CB2 Receptor Functional Inverse Agonist EC50
[6] = agonist, read-out: CB2 Receptor Functional Agonist EC50
[7] = human CB1 receptor, SK-N-MC cell membranes, radioligand CP-55,940 0.2 nM, read-out: Cannabinoid CB1 Receptor Binding IC50

T1 sequence (P34972 whole entry): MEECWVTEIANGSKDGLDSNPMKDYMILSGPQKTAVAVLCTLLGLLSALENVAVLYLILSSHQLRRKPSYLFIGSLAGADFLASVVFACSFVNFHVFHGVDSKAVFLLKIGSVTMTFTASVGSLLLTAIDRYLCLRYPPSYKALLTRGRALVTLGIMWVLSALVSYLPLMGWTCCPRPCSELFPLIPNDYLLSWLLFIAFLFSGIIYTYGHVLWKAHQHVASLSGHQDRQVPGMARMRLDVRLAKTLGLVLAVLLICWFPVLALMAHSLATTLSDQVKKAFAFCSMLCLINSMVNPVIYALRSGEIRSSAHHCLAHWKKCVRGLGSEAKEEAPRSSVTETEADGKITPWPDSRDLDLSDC

SMILES | IC50 [1, 4] | IC50 [3] | other results
CCOC(=O)[C@H]1CCc2c(c(C(=O)NC3C4CC5CC(C4)CC3C5)nn2C2CCCCC2)C1 (stereo partly drawn) [Cpd 208, (5S)-3-(adamantan-2-ylcarbamoyl)-1-cyclohexyl-4,5,6,7-tetrahydro-1H-indazole-5-carboxylic acid ethyl ester] | 0.014 µM | 0.66 µM | EC50 [2, 5]: 0.0086 µM
CCOC(=O)[C@@H]1CCc2c(c(C(=O)NC3C4CC5CC(C4)CC3C5)nn2C2CCCCC2)C1 (stereo partly drawn) [Cpd 209, (5R)-3-(adamantan-2-ylcarbamoyl)-1-cyclohexyl-4,5,6,7-tetrahydro-1H-indazole-5-carboxylic acid ethyl ester] | 0.2 µM | 0.26 µM | EC50 [2, 5]: 0.074 µM
CC12CCC(C1)C(C)(C)C2NC(=O)c1nn(-c2ccccc2)c2c1CCCC2 (centres unmarked) [compound 1] | 0.0135 µM | 0.377 µM | EC50 [2, 6]: 0.015 µM
COC(=O)C(Cc1cccc(OCc2ccccc2)c1)NC(=O)c1nn(-c2ccc(OC)cc2)c2c1CCCC2 (centres unmarked) [compound 3] | 0.428 µM |  | EC50 [2, 5]: 0.19 µM
CC12CCC(C1)C(C)(C)C2NC(=O)c1nn(-c2ccc(F)cc2)c2c1CCCC2 (centres unmarked) [compound 10] | 0.006 µM | 0.045 µM | EC50 [2, 6]: 0.0019 µM
CCOC(=O)C1CCc2c(c(C(=O)NC(C)C34CC5CC(CC(C5)C3)C4)nn2-c2ccccc2)C1 (centres unmarked) [compound 116] | 0.99 µM |  | EC50 [2, 5]: 0.5 µM
CCOC(=O)[C@H]1CCc2c(c(C(=O)NC(C)C34CC5CC(CC(C5)C3)C4)nn2C2CCCCC2)C1 (some centres unmarked) [compound 215] | 0.2 µM |  | EC50 [2, 5]: 0.22 µM
COC(=O)C1CCc2c(c(C(=O)NC3C4CC5CC(C4)CC3C5)nn2C2CCCCC2)C1 (centres unmarked) [compound 231] |  | 0.638 µM | EC50 [2, 5]: 0.035 µM
CC(C)(C)OC(=O)C1CCc2c(c(C(=O)NC3C4CC5CC(C4)CC3C5)nn2C2CCCCC2)C1 (centres unmarked) [compound 233] | 0.88 µM | 1.6 µM | 
CCC(NC(=O)c1nn(C2CCCCC2)c2c1CCCC2)C1CCCCC1 (centres unmarked) [compound 234] | 0.01 µM | 0.23 µM | 
CN(C)C(=O)C1CCc2c(c(C(=O)NC3C4(C)CCC(C4)C3(C)C)nn2C2CCCCC2)C1 (centres unmarked) [compound 235] | 1.4 µM | 3.6 µM | 
COc1ccccc1CCNC(=O)c1nn(C2CCCCC2)c2c1CCCC2 [compound 236] | 0.94 µM | 25.4 µM | 
COc1ccccc1CCNC(=O)c1nn(Cc2ccccc2)c2c1CCCC2 [compound 237] | 0.151 µM | 0.89 µM | 
COc1ccccc1CCNC(=O)c1nn(-c2ccccc2)c2c1CCCC2 [compound 238] |  |  | IC50 ([1]; human CB2 receptor, read-out: Cannabinoid CB2 Receptor Binding IC50): 3.72 µM; IC50 [3, 7]: 25.1 µM
CC(c1ccccc1)n1nc(C(=O)NCC2CCCCC2)c2c1CCCC2 (centres unmarked) [compound 242] | 1.6 µM | 0.3 µM | 
CC(c1ccccc1)n1nc(C(=O)NC2C3CC4CC(C3)CC2C4)c2c1CCCC2 (centres unmarked) [compound 243] | 0.004 µM | 0.13 µM | 
CC(c1ccccc1)n1nc(C(=O)NC23CC4CC(CC(C4)C2)C3)c2c1CCCC2 (centres unmarked) [compound 244] | 0.079 µM | 0.3 µM | 
CC1CCCCC1NC(=O)c1nn(C2CCCCC2)c2c1CCCC2 (centres unmarked) [compound 245] | 0.002 µM | 0.02 µM | 
CC(NC(=O)c1nn(C2CCCCC2)c2c1CCCC2)C1CCCCCC1 (centres unmarked) [compound 246] | 0.09 µM | 2.27 µM | 
CC(NC(=O)c1nn(C2CCCCC2)c2c1CCCC2)C1CCC1 (centres unmarked) [compound 247] | 0.047 µM | 0.26 µM | 
CC(NC(=O)c1nn(C2CCCCC2)c2c1CCCC2)[C@H]1CC[C@H](C)CC1 (some centres unmarked) [compound 248] | 0.02 µM |  | IC50 [3, 7]: 0.16 µM
CC(c1ccccc1)n1nc(C(=O)NC2C3(C)CCC(C3)C2(C)C)c2c1CCCC2 (centres unmarked) [compound 250] | 0.0056 µM | 0.07 µM | 
CCOC(=O)C1CCc2c(c(C(=O)N[C@H](C)C3CCCCC3)nn2C2CCCCC2)C1 (some centres unmarked) [compound 251] | 0.0028 µM |  | EC50 [2, 5]: 0.023 µM
C[C@H]1C(NC(=O)c2nn(C3CCCCC3)c3c2CCCC3)C[C@@H]2C[C@H]1C2(C)C (some centres unmarked) [compound 252] | 0.048 µM | 0.04 µM | 

SMILES | IC50 [1, 4] | IC50 [3] | other results
CC12CCC(C1)C(C)(C)C2NC(=O)c1nn(Cc2ccccc2)c2c1CCCC2c1ccccc1 (centres unmarked) [compound 265] | 0.041 µM | 0.096 µM | 
CC(NC(=O)c1nn(Cc2ccccc2)c2c1CCCC2c1ccccc1)C1CCCCC1 (centres unmarked) [compound 267] | 0.27 µM | 0.15 µM | 
CCOC(=O)[C@@H]1CCCC[C@H]1NC(=O)c1nn(C2CCCCC2)c2c1CCCC2 [compound 269] | 0.0386 µM | 0.191 µM | 
CCOC(=O)[C@@H]1CCCC[C@@H]1NC(=O)c1c2c(nn1Cc1ccccc1)CCCC2 [compound 270] | 1.8 µM | 3.1 µM | 
CCOC(=O)[C@H]1CCCC[C@@H]1NC(=O)c1c2c(nn1Cc1ccccc1)CCCC2 [compound 271] | 2.6 µM | 6.2 µM | 
CCOC(=O)[C@@H]1CCCC[C@H]1NC(=O)c1nn(Cc2ccccc2)c2c1CCCC2 [compound 272] | 0.07 µM | 0.086 µM | 
CCOC(=O)[C@@H]1C2CCC(C2)[C@@H]1NC(=O)c1c2c(nn1Cc1ccccc1)CCCC2 (some centres unmarked) [compound 273] | 0.414 µM | 1.59 µM | 
CCOC(=O)[C@@H]1C2CCC(C2)[C@@H]1NC(=O)c1nn(Cc2ccccc2)c2c1CCCC2 (some centres unmarked) [compound 274] | 0.0016 µM | 0.0187 µM | 
CCOC(=O)[C@H]1C2C=CC(C2)[C@H]1NC(=O)c1c2c(nn1Cc1ccccc1)CCCC2 (some centres unmarked) [compound 275] | 1.3 µM | 0.323 µM | 
CCOC(=O)[C@H]1C2C=CC(C2)[C@H]1NC(=O)c1nn(Cc2ccccc2)c2c1CCCC2 (some centres unmarked) [compound 276] | 0.25 µM | 0.135 µM | 
CCOC(=O)[C@@H]1C2C=CC(C2)[C@@H]1NC(=O)c1c2c(nn1Cc1ccccc1)CCCC2 (some centres unmarked) [compound 277] | 3.3 µM | 1.3 µM | 
CCOC(=O)[C@H]1C2C=CC(C2)[C@H]1NC(=O)c1nn(C2CCCCC2)c2c1CCCC2 (some centres unmarked) [compound 279] | 0.83 µM | 3.8 µM | 
CCOC(=O)[C@@H]1C2C=CC(C2)[C@@H]1NC(=O)c1nn(C2CCCCC2)c2c1CCCC2 (some centres unmarked) [compound 280] | 0.679 µM | 3.6 µM | 
CCOC(=O)[C@H]1C2CCC(C2)[C@H]1NC(=O)C(C)(C)Cc1nn(C2CCCCC2)c2c1CCCC2 (some centres unmarked) [compound 281] | 16.5 µM | 19.7 µM | 
CCOC(=O)[C@H]1C2CCC(C2)[C@H]1NC(=O)c1nn(C2CCCCC2)c2c1CCCC2OC (some centres unmarked) [compound 282] | 3.8 µM | 11.8 µM | 
CC(NC(=O)c1nn(-c2ccc(Cl)cc2Cl)c2c1CCCC2)C12CC3CC(CC(C3)C1)C2 (centres unmarked) [compound 283] | 0.1 µM | 0.1 µM | 
CCOC(=O)C1CCCc2c1c(C(=O)N[C@H](C)C1CCCCC1)nn2C1CCCCC1 (some centres unmarked) [compound 285] | 2.4 µM | 2.9 µM | 
O=C(NN1CCCCC1)c1nn(-c2ccc(Cl)cc2Cl)c2c1CCCC2 [compound 287] | 2.1 µM | 2.5 µM | 
CCOC(=O)C1CCc2c(c(C(=O)N[C@H](C)C3CCCCC3)nn2Cc2ccccc2)C1 (some centres unmarked) [compound 289] | 0.4 µM | 0.88 µM | 
CCOC(=O)C1CC=CCC1NC(=O)c1nn(C2CCCCC2)c2c1CCCC2 (centres unmarked) [compound 301] | 0.033 µM | 0.024 µM | 
CC(C)N(C(=O)c1nn(C2CCCCC2)c2c1CCCC2)[C@H](C)C1CCCCC1 [compound 329] | 0.02 µM | 1.7 µM | 
CC(CC1CCCCC1)NC(=O)c1nn(C2CCCCC2)c2c1CCCC2 (centres unmarked) [compound 330] | 0.03 µM | 1.9 µM | 
CC(NC(=O)Nc1nn(C2CCCCC2)c2c1CCCC2)C1CCCCC1 (centres unmarked) [compound 334] | 0.98 µM | 12.5 µM | 
